Laboratory results from patent US8772500B2, “TRPV3 modulators” (AbbVie Inc., priority 2011, dated 2014).
Like-named read-outs stand apart in the source and are kept apart here.

Tests used:
[1] = In vitro human microsomal stability assay; assay type: in vitro ADME; details: human, 0.5 h, 0.5 μM, pH 7.4
Method in brief: (§1)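 Metabolic stability was measured in liver microsomes from Sprague-Dawley rat or from human. Incubations ran at 37 °C with NADPH as cofactor, and NADPH was also added to the time-zero samples.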

[2] = In vitro rat microsomal stability assay; assay type: in vitro ADME, rat (Sprague-Dawley); details: Sprague-Dawley, rat, 0.5 h, 0.5 μM, pH 7.4
Method in brief: as §1

[3] = molecular target: T1, human TRPV3 (Homo sapiens, UniProt Q8NET8); assay: In vitro antagonism of recombinant human TRPV3 activation (FLIPR Tetra calcium assay, 2-APB as agonist); assay type: cell-based; details: HEK293 cells stably expressing human TRPV3, 2-APB 80 μM
T1 construct: expressed in transfected cells
T1 sequence (Q8NET8 1-790): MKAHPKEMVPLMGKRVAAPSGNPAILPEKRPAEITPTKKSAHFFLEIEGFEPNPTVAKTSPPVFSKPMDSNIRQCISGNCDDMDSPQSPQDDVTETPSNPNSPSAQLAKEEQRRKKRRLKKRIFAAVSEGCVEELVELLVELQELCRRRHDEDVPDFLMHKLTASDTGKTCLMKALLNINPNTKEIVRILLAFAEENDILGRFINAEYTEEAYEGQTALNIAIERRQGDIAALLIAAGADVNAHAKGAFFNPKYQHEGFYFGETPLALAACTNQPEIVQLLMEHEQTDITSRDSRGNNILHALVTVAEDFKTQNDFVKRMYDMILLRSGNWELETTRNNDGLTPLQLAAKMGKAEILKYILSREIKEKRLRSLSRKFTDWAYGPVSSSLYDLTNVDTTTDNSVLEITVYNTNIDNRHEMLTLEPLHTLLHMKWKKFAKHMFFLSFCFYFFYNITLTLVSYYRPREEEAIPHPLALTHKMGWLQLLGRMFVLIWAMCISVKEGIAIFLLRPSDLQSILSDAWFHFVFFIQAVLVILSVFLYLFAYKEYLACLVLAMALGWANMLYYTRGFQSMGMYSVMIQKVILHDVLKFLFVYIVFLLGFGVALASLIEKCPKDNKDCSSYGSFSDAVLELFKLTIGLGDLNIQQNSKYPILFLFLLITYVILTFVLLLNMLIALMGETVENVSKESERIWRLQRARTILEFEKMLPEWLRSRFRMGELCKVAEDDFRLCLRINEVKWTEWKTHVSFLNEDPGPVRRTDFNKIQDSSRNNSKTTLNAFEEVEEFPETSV
Protocol: Test compounds were evaluated for ability to antagonize the activation of recombinant human TRPV3 using FLIPR® Tetra cellular screening. Specifically, on the day prior to the experiment recombinant HEK293 cells that stably express human TRPV3 were removed from tissue culture flasks and plated in growth medium at 20,000 cells/well into Poly-d-lysine coated black/clear 384-well Plate (Corning, 3845) using a Multidrop® dispenser (ThermoScientific, Waltham, Mass.). Prior to the start of the assay, the medium was removed by aspiration, and cells were loaded with 30 μL no-wash FLIPR® Calcium-4 dye (λEX=470-495 nm, λEM=515-575 nm; Molecular Devices, Sunnyvale, Calif.). The cells were then incubated for 90-120 minutes in the dark prior to addition of the test compound.
A double-addition protocol was used. The test compound (i.e., the TRPV3 antagonist) was added at the 10 second time point, followed by the addition of a TRPV3 agonist three minutes later. Each test compound evaluated was first dissolved in DMSO to prepare a 10 mM stock solution. A solution (5×) of the test compound was then prepared in DPBS (Dulbecco's Phosphate Buffered Saline) and 10 μL of that solution was added to the cells at a delivery rate of 40 μL/sec. The TRPV3 agonist used to activate human TRPV3 expressed by the […] was 2-aminoethoxy-diphenyl borate (2-APB; Tocris Cookson, Ellisville, Mo.) at 80 μM. Final assay volume was 50 μL. Total length of an experimental run was 10 minutes.
Changes in fluorescence were measured over time using the FLIPR® instrument. The intensity of the fluorescence was captured and digitally transferred to an interfaced computer. The maximum response minus minimum response was calculated and expressed as the percentage of the maximum 2-APB response in the absence of antagonist. The concentration of 2-APB corresponds to its EC80.
Table 1 reports the IC50 values measured for the test compounds as human TRPV3 antagonists. […] Actual measured values are shown parenthetically after the reported range. In most cases, the values reported are average values from at least two runs (i.e., n≧2).

[4] = range class, read-out: IC50 (reported range)

| HUMAN MICROSOMAL STABILITY (% REMAINING AFTER 30 MINUTES) [1] [%] | RAT MICROSOMAL STABILITY (% REMAINING AFTER 30 MINUTES) [2] [%] | IC50 [3, 4] [nM] | IC50 ([3]; mostly average of n≧2, read-out: IC50 (actual measured value, shown parenthetically)) [nM] | Compound |
| --- | --- | --- | --- | --- |
| 70 | 25 | 1100 to 5000 | – | CN[C@@H]1CCC[C@H]1[C@@H](O)C1(c2ccc(Cl)c(Cl)c2)CCC1 [Example 228, (R)-[1-(3,4-dichlorophenyl)cyclobutyl][(1R,2R)-2-(methylamino)-cyclopentyl]methanol] |
| >85 | 44 | 50 to 500 | – | OC1CC(c2cncc(C(F)(F)F)c2)(C(O)c2ccccn2)C1 [Example 304, trans-3-[(S)-hydroxy(pyridin-2-yl)methyl]-3-[5-(trifluoromethyl)pyridin-3-yl]cyclobutanol] |
| 51 | 11 | 501 to 1000 | – | O[C@H](c1ncccn1)C1(c2ccc(Cl)c(Cl)c2)CCC1 [Example 39, (S)-[1-(3,4-dichlorophenyl)cyclobutyl](pyrimidin-2-yl)methanol] |
| <0.01 | <0.01 | 1100 to 5000 | – | OC(C1CCCc2cccnc21)C1(c2ccc(Cl)c(Cl)c2)CCC1 (stereo not drawn) [Example 181, (anti)-[1-(3,4-dichlorophenyl)cyclobutyl][5,6,7,8-tetrahydroquinolin-8-yl]-methanol] |
| 35 | 16 | 501 to 1000 | – | OC(c1ccccn1)C1(c2ccc(Cl)c(Cl)c2)CC(F)(F)C1 (stereo not shown) [Example 82, [1-(3,4-dichlorophenyl)-3,3-difluorocyclobutyl](pyridin-2-yl)methanol] |
| 24 | 9.5 | 50 to 500 | – | O[C@H](c1ccccn1)[C@]1(c2ccc(Cl)c(Cl)c2)CCO1 [Example 136, (R)-[(2R)-2-(3,4-dichlorophenyl)oxetan-2-yl](pyridin-2-yl)methanol] |
| 24 | 18 | 50 to 500 | – | OC(c1ccccn1)C1(c2cccc(C(F)(F)F)c2)CC(F)(F)C1 (stereo not shown) [Example 113, {3,3-difluoro-1-[3-(trifluoromethyl)phenyl]cyclobutyl}(pyridin-2-yl)-methanol] |
| 57 | 22 | 5100 to 20000 | – | OC(c1ccccn1)C1(c2nc3ccc(Cl)cc3o2)CCC1 (stereo not shown) [Example 301, [1-(6-chloro-1,3-benzoxazol-2-yl)cyclobutyl](pyridin-2-yl)methanol] |
| 20 | <0.01 | 1100 to 5000 | – | OC(c1ccccn1)C1(c2cccc(OC(F)(F)F)c2)CC2(C1)OCCO2 (stereo not shown) [Example 235, pyridin-2-yl{2-[3-(trifluoromethoxy)phenyl]-5,8-dioxaspiro[3.4]oct-2-yl}-methanol] |
| 1.1 | 0.57 | 1100 to 5000 | – | OC(c1ccccn1)C1(Cc2cccc(F)c2)CCC1 (stereo not shown) [Example 254, [1-(3-fluorobenzyl)cyclobutyl](pyridin-2-yl)methanol] |
| >85 | <0.01 | 501 to 1000 | – | N[C@H]1CCC[C@H]1[C@@H](O)C1(c2ccccc2F)CCC1 [Example 226, (R)-[(1R,2S)-2-aminocyclopentyl][1-(2-fluorophenyl)cyclobutyl]methanol] |
| 17 | 0.48 | 1100 to 5000 | 3940 | OC(c1ccccn1)C1(C2=COCCC2)CCC1 (single isomer, unassigned) [Example 270, [1-(3,4-dihydro-2H-pyran-5-yl)cyclobutyl](pyridine-2-yl)methanol] |
| 0.68 | 0.15 | 1100 to 5000 | – | OC(c1ccccn1)C1(c2ccccc2OC(F)(F)F)CCCO1 (stereo not drawn) [Example 96, (anti)-pyridin-2-yl{2-[2-(trifluoromethoxy)phenyl]tetrahydrofuran-2-yl}-methanol] |
| >85 | >85 | 1100 to 5000 | – | O=C1CC(c2cc(C(F)(F)F)ccn2)([C@H](O)c2ccccn2)C1 [Example 277, 3-[(S)-hydroxy(pyridin-2-yl)methyl]-3-[4-(trifluoromethyl)pyridin-2-yl]-cyclobutanone] |
| 41 | 26 | 501 to 1000 | – | OC(c1ccccn1)C1(c2ccc(F)c(C(F)(F)F)c2)CC(F)(F)C1 (stereo not shown) [Example 139, {3,3-difluoro-1-[4-fluoro-3-(trifluoromethyl)phenyl]cyclobutyl}(pyridin-2-yl)methanol] |
| 55 | 10 | 1100 to 5000 | – | OC(c1ccccn1)C1(C2CCC(F)(F)CC2)CCC1 (stereo not shown) [Example 274, [1-(4,4-difluorocyclohexyl)cyclobutyl](pyridin-2-yl)methanol] |
| 0.42 | 1.1 | 1100 to 5000 | – | OC(c1ccccn1)C1(C2CCCc3ccccc32)CCC1 (stereo not shown) [Example 56, pyridin-2-yl[1-(1,2,3,4-tetrahydronaphthalen-1-yl)cyclobutyl]methanol] |
| 80 | 32 | 501 to 1000 | – | OC1CC(c2cncc(C(F)(F)F)c2)(C(O)c2ccccn2)C1 [Example 303, cis-3-[(S)-hydroxy(pyridin-2-yl)methyl]-3-[5-(trifluoromethyl)pyridin-3-yl]-cyclobutanol] |
| 18 | 50 | 1100 to 5000 | – | O=C1CC(c2ccc(Cl)c(Cl)c2)([C@H](O)c2ccccn2)C1 [Example 117, 3-(3,4-dichlorophenyl)-3-[(S)-hydroxy(pyridin-2-yl)methyl]cyclobutanone] |
| 20 | 17 | 1100 to 5000 | – | OC(c1ccccn1)C1(c2ccc(Oc3ccccc3)cc2)CCC1 (stereo not shown) [Example 24, [1-(4-phenoxyphenyl)cyclobutyl](pyridin-2-yl)methanol] |
| >85 | 53 | 5100 to 20000 | – | Cc1cc(C(F)(F)F)cc(C2([C@@H](O)c3ccccn3)CC(=O)C2)n1 [Example 291, 3-[(R)-hydroxy(pyridin-2-yl)methyl]-3-[6-methyl-4-(trifluoromethyl)pyridin-2-yl]cyclobutanone] |
| 43 | 0.059 | 5100 to 20000 | – | CC(C)(C)OC(=O)N1CCC(C2(C(O)c3ccccn3)CCC2)C1 (stereo not shown) [Example 265, tert-butyl 3-{1-[hydroxy(pyridin-2-yl)methyl]cyclobutyl}pyrrolidine-1-carboxylate] |
